Values of other authors, collected in patent publication US20050065132A1, “2-alkylidene-19-nor-vitamin D derivatives for the treatment or prevention of a secon hip fracture” (Pfizer Inc, priority 2003, published 2005).
Like-named read-outs stand apart in the source and are kept apart here.

Columns and labels:
[1] = test system: intestinal calcium transport
[2] = test system: serum calcium (bone calcium mobilization); details: given for 7 days in a chronic mode, 130 and 260 pmol/day
[3] = 130 or 260 pmol dose, chronic 7 days

Compound | change in intestinal calcium transport [1, 3] | bone calcium mobilization [2] | change in intestinal calcium transport ([1]; 260 pmol/day, only dose tested)
C=C1[C@H](O)CC(=C/C=C2\CCC[C@]3(C)[C@@H]([C@@H](C)CCCC(C)(C)O)CC[C@@H]23)C[C@H]1O [2-Methylene-19-Nor-20S-1,25-(OH)2D3, (20S)-1α,25-dihydroxy-2-methylene-19-nor-vitamin D3] | no significant change | most potent compound tested | –
C=C1[C@H](O)CC(=C/C=C2\CCC[C@]3(C)[C@@H]([C@H](C)CCCC(C)(C)O)CC[C@@H]23)C[C@H]1O [2-Methylene-19-Nor-1,25-(OH)2D3, 1α,25-dihydroxy-2-methylene-19-nor-vitamin D3] | no intestinal calcium transport activity | extremely strong | –
C=C1/C(=C\C=C2/CCC[C@]3(C)[C@@H]([C@H](C)CCCC(C)(C)O)CC[C@@H]23)C[C@@H](O)C[C@@H]1O [1,25-(OH)2D3, 1,25-dihydroxyvitamin D3, reference compound] | – | – | expected elevation
